Results: ChEMBL document CHEMBL1649524, “Resistance selection studies comparing the activity of razupenem (PTZ601) to vancomycin and linezolid against eight methicillin-resistant and two methicillin-susceptible Staphylococcus aureus strains” (2009)
Values after ≈ are worked out from the molar mass of the structure shown.

How the values were obtained:
Type in all cases: functional
[1] = test system: Staphylococcus aureus; assay: Antimicrobial activity against heterogeneous vancomycin-intermediate Staphylococcus aureus 168 after 50 passages by macrodilution method
[2] = test system: Staphylococcus aureus; assay: Antimicrobial activity against heterogeneous vancomycin-intermediate Staphylococcus aureus 873 after 50 passages by macrodilution method
[3] = test system: Staphylococcus aureus; assay: Antimicrobial activity against vancomycin-intermediate Staphylococcus aureus 1287 after 50 passages by macrodilution method
[4] = test system: Staphylococcus aureus; assay: Antimicrobial activity against methicillin-resistant Staphylococcus aureus 525 after 50 passages by macrodilution method
[5] = test system: Staphylococcus aureus; assay: Antimicrobial activity against methicillin-resistant Staphylococcus aureus 547 after 48 passages by macrodilution method
[6] = test system: Staphylococcus aureus; assay: Antimicrobial activity against methicillin-susceptible Staphylococcus aureus 543 after 15 passages by macrodilution method
[7] = test system: Staphylococcus aureus; assay: Antimicrobial activity against vancomycin-resistant Staphylococcus aureus 510 after 50 passages by macrodilution method
[8] = test system: Staphylococcus aureus; assay: Antimicrobial activity against vancomycin-resistant Staphylococcus aureus 509 after 28 passages by macrodilution method
[9] = test system: Staphylococcus aureus; assay: Antimicrobial activity against vancomycin-intermediate Staphylococcus aureus 1287 measured after 10 antibiotic-free subculturing by macrodilution method
[10] = test system: Staphylococcus aureus; assay: Antimicrobial activity against methicillin-susceptible Staphylococcus aureus 543 measured after 10 antibiotic-free subculturing by macrodilution method
[11] = test system: Staphylococcus aureus; assay: Antimicrobial activity against vancomycin-resistant Staphylococcus aureus 509 measured after 10 antibiotic-free subculturing by macrodilution method
[12] = test system: Staphylococcus aureus; assay: Antimicrobial activity against vancomycin-intermediate Staphylococcus aureus 1287 measured on day 5 by macrodilution method; details: Staphylococcus aureus, 1287, 120 h
[13] = test system: Staphylococcus aureus; assay: Antimicrobial activity against heterogeneous vancomycin-intermediate Staphylococcus aureus 168 measured on day 10 by macrodilution method; details: Staphylococcus aureus, 168, 240 h
[14] = test system: Staphylococcus aureus; assay: Antimicrobial activity against vancomycin-intermediate Staphylococcus aureus 1287 measured on day 10 by macrodilution method; details: Staphylococcus aureus, 1287, 240 h
[15] = test system: Staphylococcus aureus; assay: Antimicrobial activity against methicillin-susceptible Staphylococcus aureus 543 measured on day 10 by macrodilution method; details: Staphylococcus aureus, 543, 240 h
[16] = test system: Staphylococcus aureus; assay: Antimicrobial activity against heterogeneous vancomycin-intermediate Staphylococcus aureus 168 measured on day 15 by macrodilution method; details: Staphylococcus aureus, 168, 360 h
[17] = test system: Staphylococcus aureus; assay: Antimicrobial activity against vancomycin-intermediate Staphylococcus aureus 1287 measured on day 15 by macrodilution method; details: Staphylococcus aureus, 1287, 360 h
[18] = test system: Staphylococcus aureus; assay: Antimicrobial activity against methicillin-resistant Staphylococcus aureus 525 measured on day 15 by macrodilution method; details: Staphylococcus aureus, 525, 360 h
[19] = test system: Staphylococcus aureus; assay: Antimicrobial activity against methicillin-resistant Staphylococcus aureus 547 measured on day 15 by macrodilution method; details: Staphylococcus aureus, 547, 360 h
[20] = test system: Staphylococcus aureus; assay: Antimicrobial activity against methicillin-susceptible Staphylococcus aureus 540 measured on day 15 by macrodilution method; details: Staphylococcus aureus, 540, 360 h
[21] = test system: Staphylococcus aureus; assay: Antimicrobial activity against methicillin-susceptible Staphylococcus aureus 543 measured on day 15 by macrodilution method; details: Staphylococcus aureus, 543, 360 h
[22] = test system: Staphylococcus aureus; assay: Antimicrobial activity against heterogeneous vancomycin-intermediate Staphylococcus aureus 168 measured on day 20 by macrodilution method; details: Staphylococcus aureus, 168, 480 h
[23] = test system: Staphylococcus aureus; assay: Antimicrobial activity against vancomycin-intermediate Staphylococcus aureus 1287 measured on day 20 by macrodilution method; details: Staphylococcus aureus, 1287, 480 h
[24] = test system: Staphylococcus aureus; assay: Antimicrobial activity against methicillin-resistant Staphylococcus aureus 525 measured on day 20 by macrodilution method; details: Staphylococcus aureus, 525, 480 h
[25] = test system: Staphylococcus aureus; assay: Antimicrobial activity against methicillin-resistant Staphylococcus aureus 547 measured on day 20 by macrodilution method; details: Staphylococcus aureus, 547, 480 h
[26] = test system: Staphylococcus aureus; assay: Antimicrobial activity against methicillin-susceptible Staphylococcus aureus 540 measured on day 20 by macrodilution method; details: Staphylococcus aureus, 540, 480 h
[27] = test system: Staphylococcus aureus; assay: Antimicrobial activity against vancomycin-resistant Staphylococcus aureus 510 measured on day 20 by macrodilution method; details: Staphylococcus aureus, 510, 480 h
[28] = test system: Staphylococcus aureus; assay: Antimicrobial activity against vancomycin-resistant Staphylococcus aureus 509 measured on day 20 by macrodilution method; details: Staphylococcus aureus, 509, 480 h
[29] = test system: Staphylococcus aureus; assay: Antimicrobial activity against heterogeneous vancomycin-intermediate Staphylococcus aureus 168 measured on day 25 by macrodilution method; details: Staphylococcus aureus, 168, 600 h
[30] = test system: Staphylococcus aureus; assay: Antimicrobial activity against vancomycin-intermediate Staphylococcus aureus 1287 measured on day 25 by macrodilution method; details: Staphylococcus aureus, 1287, 600 h
[31] = test system: Staphylococcus aureus; assay: Antimicrobial activity against methicillin-resistant Staphylococcus aureus 525 measured on day 25 by macrodilution method; details: Staphylococcus aureus, 525, 600 h
[32] = test system: Staphylococcus aureus; assay: Antimicrobial activity against methicillin-resistant Staphylococcus aureus 547 measured on day 25 by macrodilution method; details: Staphylococcus aureus, 547, 600 h
[33] = test system: Staphylococcus aureus; assay: Antimicrobial activity against methicillin-susceptible Staphylococcus aureus 540 measured on day 25 by macrodilution method; details: Staphylococcus aureus, 540, 600 h
[34] = test system: Staphylococcus aureus; assay: Antimicrobial activity against vancomycin-resistant Staphylococcus aureus 510 measured on day 25 by macrodilution method; details: Staphylococcus aureus, 510, 600 h
[35] = test system: Staphylococcus aureus; assay: Antimicrobial activity against vancomycin-resistant Staphylococcus aureus 509 measured on day 25 by macrodilution method; details: Staphylococcus aureus, 509, 600 h
[36] = test system: Staphylococcus aureus; assay: Antimicrobial activity against heterogeneous vancomycin-intermediate Staphylococcus aureus 873 measured on day 30 by macrodilution method
[37] = test system: Staphylococcus aureus; assay: Antimicrobial activity against vancomycin-intermediate Staphylococcus aureus 1287 measured on day 30 by macrodilution method
[38] = test system: Staphylococcus aureus; assay: Antimicrobial activity against methicillin-resistant Staphylococcus aureus 547 measured on day 30 by macrodilution method
[39] = test system: Staphylococcus aureus; assay: Antimicrobial activity against methicillin-susceptible Staphylococcus aureus 540 measured on day 30 by macrodilution method
[40] = test system: Staphylococcus aureus; assay: Antimicrobial activity against vancomycin-resistant Staphylococcus aureus 510 measured on day 30 by macrodilution method
[41] = test system: Staphylococcus aureus; assay: Antimicrobial activity against heterogeneous vancomycin-intermediate Staphylococcus aureus 168 measured on day 35 by macrodilution method
[42] = test system: Staphylococcus aureus; assay: Antimicrobial activity against heterogeneous vancomycin-intermediate Staphylococcus aureus 873 measured on day 35 by macrodilution method
[43] = test system: Staphylococcus aureus; assay: Antimicrobial activity against vancomycin-intermediate Staphylococcus aureus 1287 measured on day 35 by macrodilution method
[44] = test system: Staphylococcus aureus; assay: Antimicrobial activity against methicillin-resistant Staphylococcus aureus 525 measured on day 35 by macrodilution method
[45] = test system: Staphylococcus aureus; assay: Antimicrobial activity against methicillin-resistant Staphylococcus aureus 547 measured on day 35 by macrodilution method
[46] = test system: Staphylococcus aureus; assay: Antimicrobial activity against methicillin-susceptible Staphylococcus aureus 540 measured on day 35 by macrodilution method
[47] = test system: Staphylococcus aureus; assay: Antimicrobial activity against vancomycin-resistant Staphylococcus aureus 510 measured on day 35 by macrodilution method
[48] = test system: Staphylococcus aureus; assay: Antimicrobial activity against heterogeneous vancomycin-intermediate Staphylococcus aureus 168 measured on day 40 by macrodilution method
[49] = test system: Staphylococcus aureus; assay: Antimicrobial activity against heterogeneous vancomycin-intermediate Staphylococcus aureus 873 measured on day 40 by macrodilution method
[50] = test system: Staphylococcus aureus; assay: Antimicrobial activity against vancomycin-intermediate Staphylococcus aureus 1287 measured on day 40 by macrodilution method
[51] = test system: Staphylococcus aureus; assay: Antimicrobial activity against methicillin-resistant Staphylococcus aureus 525 measured on day 40 by macrodilution method
[52] = test system: Staphylococcus aureus; assay: Antimicrobial activity against methicillin-resistant Staphylococcus aureus 547 measured on day 40 by macrodilution method
[53] = test system: Staphylococcus aureus; assay: Antimicrobial activity against vancomycin-resistant Staphylococcus aureus 509 measured on day 40 by macrodilution method
[54] = test system: Staphylococcus aureus; assay: Antimicrobial activity against heterogeneous vancomycin-intermediate Staphylococcus aureus 168 measured on day 45 by macrodilution method
[55] = test system: Staphylococcus aureus; assay: Antimicrobial activity against heterogeneous vancomycin-intermediate Staphylococcus aureus 873 measured on day 45 by macrodilution method
[56] = test system: Staphylococcus aureus; assay: Antimicrobial activity against vancomycin-intermediate Staphylococcus aureus 1287 measured on day 45 by macrodilution method
[57] = test system: Staphylococcus aureus; assay: Antimicrobial activity against methicillin-resistant Staphylococcus aureus 525 measured on day 45 by macrodilution method
[58] = test system: Staphylococcus aureus; assay: Antimicrobial activity against methicillin-resistant Staphylococcus aureus 547 measured on day 45 by macrodilution method
[59] = test system: Staphylococcus aureus; assay: Antimicrobial activity against heterogeneous vancomycin-intermediate Staphylococcus aureus 168 measured on day 50 by macrodilution method
[60] = test system: Staphylococcus aureus; assay: Antimicrobial activity against heterogeneous vancomycin-intermediate Staphylococcus aureus 873 measured on day 50 by macrodilution method
[61] = test system: Staphylococcus aureus; assay: Antimicrobial activity against vancomycin-intermediate Staphylococcus aureus 1287 measured on day 50 by macrodilution method
[62] = test system: Staphylococcus aureus; assay: Antimicrobial activity against methicillin-resistant Staphylococcus aureus 525 measured on day 50 by macrodilution method
[63] = test system: Staphylococcus aureus; assay: Antimicrobial activity against vancomycin-resistant Staphylococcus aureus 510 measured on day 50 by macrodilution method

CC(=O)NC[C@H]1CN(c2ccc(N3CCOCC3)c(F)c2)C(=O)O1 [LINEZOLID]
MIC [1]: 16 µg/mL (≈ 47.4 µM)
MIC [2]: 8 µg/mL (≈ 23.7 µM)
MIC [3]: 16 µg/mL (≈ 47.4 µM)
MIC [4]: 16 µg/mL (≈ 47.4 µM)
MIC [5]: 32 µg/mL (≈ 94.9 µM)
MIC [6]: 32 µg/mL (≈ 94.9 µM)
MIC [7]: 16 µg/mL (≈ 47.4 µM)
MIC [8]: 16 µg/mL (≈ 47.4 µM)
MIC [9]: 8 µg/mL (≈ 23.7 µM)
MIC [10]: 32 µg/mL (≈ 94.9 µM)
MIC [11]: 32 µg/mL (≈ 94.9 µM)
MIC [12]: 8 µg/mL (≈ 23.7 µM)
MIC [13]: 8 µg/mL (≈ 23.7 µM)
MIC [14]: 8 µg/mL (≈ 23.7 µM)
MIC [15]: 8 µg/mL (≈ 23.7 µM)
MIC [16]: 8 µg/mL (≈ 23.7 µM)
MIC [17]: 8 µg/mL (≈ 23.7 µM)
MIC [18]: 16 µg/mL (≈ 47.4 µM)
MIC [19]: 8 µg/mL (≈ 23.7 µM)
MIC [20]: 16 µg/mL (≈ 47.4 µM)
MIC [21]: 32 µg/mL (≈ 94.9 µM)
MIC [22]: 8 µg/mL (≈ 23.7 µM)
MIC [23]: 8 µg/mL (≈ 23.7 µM)
MIC [24]: 16 µg/mL (≈ 47.4 µM)
MIC [25]: 8 µg/mL (≈ 23.7 µM)
MIC [26]: 16 µg/mL (≈ 47.4 µM)
MIC [27]: 8 µg/mL (≈ 23.7 µM)
MIC [28]: 8 µg/mL (≈ 23.7 µM)
MIC [29]: 8 µg/mL (≈ 23.7 µM)
MIC [30]: 8 µg/mL (≈ 23.7 µM)
MIC [31]: 16 µg/mL (≈ 47.4 µM)
MIC [32]: 16 µg/mL (≈ 47.4 µM)
MIC [33]: 16 µg/mL (≈ 47.4 µM)
MIC [34]: 8 µg/mL (≈ 23.7 µM)
MIC [35]: 16 µg/mL (≈ 47.4 µM)
MIC [36]: 16 µg/mL (≈ 47.4 µM)
MIC [37]: 16 µg/mL (≈ 47.4 µM)
MIC [38]: 16 µg/mL (≈ 47.4 µM)
MIC [39]: 16 µg/mL (≈ 47.4 µM)
MIC [40]: 8 µg/mL (≈ 23.7 µM)
MIC [41]: 8 µg/mL (≈ 23.7 µM)
MIC [42]: 8 µg/mL (≈ 23.7 µM)
MIC [43]: 16 µg/mL (≈ 47.4 µM)
MIC [44]: 16 µg/mL (≈ 47.4 µM)
MIC [45]: 16 µg/mL (≈ 47.4 µM)
MIC [46]: 32 µg/mL (≈ 94.9 µM)
MIC [47]: 8 µg/mL (≈ 23.7 µM)
MIC [48]: 8 µg/mL (≈ 23.7 µM)
MIC [49]: 8 µg/mL (≈ 23.7 µM)
MIC [50]: 16 µg/mL (≈ 47.4 µM)
MIC [51]: 16 µg/mL (≈ 47.4 µM)
MIC [52]: 16 µg/mL (≈ 47.4 µM)
MIC [53]: 8 µg/mL (≈ 23.7 µM)
MIC [54]: 8 µg/mL (≈ 23.7 µM)
MIC [55]: 8 µg/mL (≈ 23.7 µM)
MIC [56]: 16 µg/mL (≈ 47.4 µM)
MIC [57]: 16 µg/mL (≈ 47.4 µM)
MIC [58]: 32 µg/mL (≈ 94.9 µM)
MIC [59]: 16 µg/mL (≈ 47.4 µM)
MIC [60]: 8 µg/mL (≈ 23.7 µM)
MIC [61]: 16 µg/mL (≈ 47.4 µM)
MIC [62]: 16 µg/mL (≈ 47.4 µM)
MIC [63]: 16 µg/mL (≈ 47.4 µM)
